# Values joined by “and” are separate entries in the source; they are usually repeats but may differ in a detail not shown here. Identical values can stand only once. Marks after values point to notes of the source that are not given here.
# Key:
# HepG2 cells = settings: cited from earlier work
# COX-1 = settings: cited from earlier work
# maltase = settings: reversible and non-competitive inhibitor; read-out: K(i) value, maltase; cited from earlier work
# COX-2 = molecular target: T1, COX-2 (Homo sapiens, UniProt P35354); settings: cited from earlier work
# T1 sequence (P35354 18-604): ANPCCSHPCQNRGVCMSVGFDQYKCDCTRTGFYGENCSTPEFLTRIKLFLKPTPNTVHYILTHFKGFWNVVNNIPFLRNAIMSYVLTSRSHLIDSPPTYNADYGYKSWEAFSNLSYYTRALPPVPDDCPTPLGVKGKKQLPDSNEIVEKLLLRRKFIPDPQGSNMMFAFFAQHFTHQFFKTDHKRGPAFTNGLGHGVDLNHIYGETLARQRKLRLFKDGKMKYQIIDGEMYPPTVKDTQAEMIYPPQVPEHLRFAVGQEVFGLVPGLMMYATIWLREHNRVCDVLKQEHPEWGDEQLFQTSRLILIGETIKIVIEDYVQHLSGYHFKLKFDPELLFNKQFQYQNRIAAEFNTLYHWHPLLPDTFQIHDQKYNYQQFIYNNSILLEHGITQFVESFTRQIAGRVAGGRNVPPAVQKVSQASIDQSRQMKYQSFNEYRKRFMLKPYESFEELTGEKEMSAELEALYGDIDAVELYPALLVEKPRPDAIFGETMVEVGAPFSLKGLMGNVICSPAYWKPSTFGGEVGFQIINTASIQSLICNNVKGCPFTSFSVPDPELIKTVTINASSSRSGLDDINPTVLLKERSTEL
# 5-LOX = settings: cited from earlier work
# xanthine oxidase (XO) = test: Superoxide radical scavenging assay by NBT hypoxanthine/XO method; format: biochemical; settings: for % Control (superoxide generation by XO): water blank = 100
# Experimental: One T. chebula (TC) based extract was tested at three different dilutions of 5, 25 and 50 μg/mL, and one T. bellerica (TB) based extract was tested at the same three dilutions. Standard positive control was allopurinol (AP) tested at 1, 5 and 10 μg/mL. […] Stock solutions of test materials were prepared at 20 mg/ml in water (TB and TC) or immediately prior to the experiment. Further dilutions were made in type I sterile water and the effect of test materials on XO-mediated free radical (superoxide) generation was assessed as previously described ([…] al., 2008), using hypoxanthine/XO/NBT (tetrazolium salt) system with the reaction product (formazan) followed at 570 nm with the BioRad microplate spectrophotometer 3550-UV. Allopurinol (AP) was the positive control, double-distilled water was the negative control (blank). P values representing statistical significance were calculated using paired t-test and threshold of statistical significance was fixed at p=0.05 and at least 15% difference as compared to the water control.
# [1] = tested on: serum uric acid levels in patients with hyperuricemia; test: Randomized, double blind, placebo controlled clinical study on serum uric acid levels; format: in vivo, human; settings: extracts 500 mg BID oral, febuxostat 40 mg OD, Mean±SD
# Experimental: A randomized, double blind, placebo controlled, parallel-group study was performed to evaluate the effect of Terminalia chebula and Terminalia bellerica in comparison to Febuxostat and a placebo on serum uric acid levels in patients with hyperuricemia. The present study was a prospective, randomized, double blinded, placebo controlled trial. A total of 52 patients were enrolled to receive the study treatment in a randomized manner. The study was approved by the Institutional Ethics Committee and all the subjects gave written informed consent prior to their participation in the study. Hyperuricemia patients of either gender aged between 18 and 70 years were selected, with serum uric acid level ≧6.0 mg/dL and ≦12.0 mg/dL after having stopped all uric acid-lowering therapy for at least 10 days. Patients who were willing to comply with the requirements of the study and to give voluntary, written informed consent were enrolled into the study. Patients with a gout flare during screening or baseline visit were excluded. Patients currently using aspirin or other NSAIDS, diuretics, other medications with known urate-lowering effects were also excluded from the study. Patients with history or presence of nephrolithiasis or uncontrolled hypertension or diabetes, hepatic and renal impairment, pregnant or lactating females or secondary hyperuricemia (e.g. due to myeloproliferative disorder, or organ transplant) were excluded. After screening, all the eligible patients were randomized to either of the four treatment groups in a double blinded fashion for duration of 8 weeks, prospectively 12 weeks. Group 1—Terminalia chebula 500 mg—1 capsule of 500 mg orally twice a day (BID) after food. Group 2—Terminalia bellerica 500 mg—1 capsule of 500 mg orally twice a day (BID) after food. Group 3—Febuxostat—1 tablet of 40 mg (encapsulated in a similar capsule to that of Terminalia chebula/Terminalia bellerica/placebo capsules) once daily (OD) orally in the morning after food and an identical placebo capsule in the evening after food. […] At each visit they were evaluated for efficacy measurements and safety assessments. Serum uric acid levels were measured at baseline, end of 4 weeks, and end of 8 weeks. […] The subsequent 2 visits were scheduled at 4 weeks interval (visit 3—after 4 weeks of treatment, visit 4—after 8 weeks of treatment), vital signs, general examination; serum uric acid levels were measured. Pill count for study medication was evaluated. […] Study data is expressed as Mean±SD. Primary and secondary outcome measures were analyzed as the mean percentage reduction and absolute change in serum uric acid levels from baseline to 4 weeks, 8 weeks, and (prospectively) 12 weeks of treatment. […]
# hyperuricemic patients = test: Safety and tolerability assessment in the clinical study; format: in vivo, human; settings: 8 weeks treatment; 13 patients per group; extracts 500 mg BID, febuxostat 40 mg OD
# Experimental: Secondary objective: To evaluate the safety and tolerability of Terminalia chebula and Terminalia bellerica in hyperuricemic patients.
# Safety lab investigations for hematological, hepatic and renal biochemical parameters were done at baseline and at the end of the study (8 weeks) and also as and when required (in case of any adverse drug reaction (ADR)). Subjects were interviewed for the presence of ADR and the same was recorded in the case report form (CRF). Compliance to therapy was assessed by pill count method.
# The subsequent 2 visits were scheduled at 4 weeks interval (visit 3—after 4 weeks of treatment, visit 4—after 8 weeks of treatment), vital signs, general examination; serum uric acid levels were measured. Pill count for study medication was evaluated. At the (prospective) conclusion of the study, Visit 5 (after 12 weeks post treatment), vital signs, general examination, serum uric acid, routine safety lab investigations will be performed. […] Adverse Effects/SAE monitoring would be done throughout the course of study. Safety lab parameters will be done before and after treatment and as and when required. […]
# 2. Measurements of Tolerability will be assessed at the end of 8 weeks/12 weeks as: Good—no side effects; Fair—mild to moderate side effects; and/or Poor—severe side effects and withdrawal of therapy.
# [2] = from baseline, negative = decrease
compound,measurement,setting,value
"beta-1-O-galloyl-2,4-chebuloyl-3,6-(R)-hexahydroxydiphenoyl-D-glucose [Chebulagic acid]",Enhancement of the cytotoxicity of doxorubicin,HepG2 cells,20 fold
same,IC50,COX-1,15 ± 0.288 µM
same,Ki,maltase,6.6 µM
same,IC50,COX-2,0.92 ± 0.011 µM
same,IC50,5-LOX,2.1 ± 0.057 µM
"Oc1ncnc2[nH]ncc12 [AP, allopurinol]",ED50 (dose required for 50% inhibition of XO),xanthine oxidase (XO),6 µg/mL
same,% Control (superoxide generation by XO),xanthine oxidase (XO); test material at 1 μg/ml,89%
same,% Control (superoxide generation by XO),xanthine oxidase (XO); test material at 5 μg/ml,54%
same,% Control (superoxide generation by XO),xanthine oxidase (XO); test material at 10 μg/ml,43%
Cc1nc(-c2ccc(OCC(C)C)c(C#N)c2)sc1C(=O)O [Febuxostat],Serum Uric Acid level at the end of 4 weeks,[1]; 13 patients per group,7.23 ± 0.72 mg/dL
same,Serum Uric Acid level at the end of 8 weeks,[1]; 13 patients per group,6.08 ± 0.6 mg/dL
same,Mean Percentage Reduction in Serum Uric Acid Level after 8 weeks,[1]; [2],−29.58 ± 5.74 %
same,Mean Percentage Reduction in Serum Uric Acid at the end of 4 weeks,[1]; [2],−16.31 ± 5.32*^NS %
same,Adverse effects reported,hyperuricemic patients,Two patients in the Febuxostat group had elevated mildly elevated total bilirubin and 1 patient had complained of nausea and vomiting

# From patent US9750778B2, “Terminalia chebula and Terminalia bellirica extracts for inhibition of xanthine oxidase” (priority 2013, dated 2017)
